Active and inactive are the calls of the source.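 How the source made its calls: active means a concentration-response curve whose fit quality R2 exceeds 0.5; inactive means the rest.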
Target: Muscarinic acetylcholine receptor M5 (Homo sapiens) (UniProt P08912)
Test: potentiation of ACh calcium response at M5 – cell-based, CHO-K1 M5, Fluo-4 calcium, ACh EC20, selectivity assay for M1 muscarinic PAM project, dose response (AID 2433)
Conditions: CHO-K1 M5 cells; for % of max ACh response: at 30 µM (top of the series)

Chain of Muscarinic acetylcholine receptor M5 (Homo sapiens) (P08912 whole entry, looked up): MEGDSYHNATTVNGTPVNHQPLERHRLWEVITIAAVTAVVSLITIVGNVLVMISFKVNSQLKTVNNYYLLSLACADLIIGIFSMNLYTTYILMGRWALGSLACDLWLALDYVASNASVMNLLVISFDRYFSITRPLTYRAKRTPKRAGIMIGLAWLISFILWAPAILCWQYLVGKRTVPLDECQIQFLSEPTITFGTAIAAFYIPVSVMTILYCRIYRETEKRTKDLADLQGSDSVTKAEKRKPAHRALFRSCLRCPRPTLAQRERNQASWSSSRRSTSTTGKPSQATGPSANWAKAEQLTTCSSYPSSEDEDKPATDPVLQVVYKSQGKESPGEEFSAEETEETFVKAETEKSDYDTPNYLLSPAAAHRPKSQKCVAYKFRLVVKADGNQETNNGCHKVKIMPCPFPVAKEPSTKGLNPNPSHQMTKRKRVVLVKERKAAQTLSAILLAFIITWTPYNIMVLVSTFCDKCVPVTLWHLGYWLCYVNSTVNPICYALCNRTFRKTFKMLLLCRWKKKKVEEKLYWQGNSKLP

SMILES	% of max ACh response	EC50
Cn1cc(-c2ccc(CN3C(=O)C(=O)c4ccccc43)c(F)c2)cn1	inactive	–
Cn1cc(-c2ccc(CN3C(=O)C(=O)c4ccccc43)cc2)cn1	–	inactive
Cn1cc(-c2cc(F)c(CN3C(=O)C(=O)c4ccccc43)c(F)c2)cn1	inactive	–
